In patent US7514076B2, “Antitumor agents” (priority 1997, dated 2009):

Legend:
[1] = test system: S180 solid tumor; test: Antitumor effect of PEG-DAO on S180 solid tumor model; assay type: in vivo, ddY mice; conditions: 1.5 U i.v. day 7, D-proline 0.5 mmol i.p. 2 and 4 hrs after; FIG. 10
Description: S180 cells (2×10^6 cells) were inoculated subcutaneously to ddY mice. Seven days after tumor inoculation, mice were injected i.v. with 1.5 U of native DAO or PEG-DAO followed by D-proline 0.5 mmol, i.p. (2 and 4 hrs after DAO administration).
In the FIG. 10, —●— indicates the result of treated mice by administration of PEG-DAO by […]. injection with D-proline, and —▴— indicates the result of administration of native DAO similarly with D-proline. —◯— indicates the result of control mice without any drug treatment Data are means (n=4-8)±SE (standard error). […] Thus, in vivo activity of PEG-DAO is excellent.

[2] = test system: S-180 solid tumor; test: Antitumor activity of PEG-XO in vivo with hypoxanthine; design: species or system ddY mice; conditions: for suppression of the tumor growth: FIG. 1
Description: When the tumors became palpable (5-7 mm in diameter), usually 7 days after implantation, the treatment was resumed.
Hypoxanthine (13.3 mg/kg) was injected intraperitoneally six times, each time more than 6 hrs after the last time, as indicated by asterisks (*) in the FIG. 1 to 3.

[3] = Time course of tumor accumulation of PEG-XO-high (XO activity in tumor homogenate, pterin substrate); assay type: in vivo, ddY mice
Description: The time course of the tumor accumulation of PEG-XO-high was examined by measuring the enzyme activity derived from PEG-XO-high in the tumor tissue. Tumor bearing mice were prepared as described above. PEG-XO-high (2 U/ml, 100 μl) was injected intravenously (i.v.) to the mice. After a given period, the tumor tissue was removed as described above. The tumor tissue was then homogenized with three volumes of 20 mM potassium phosphate buffer pH 7.6 which contained 2 mM ethylenediaminetetraacetic acid, 2 mM amidinophenylmethanesulfonyl fluoride, 10 mM dithiothreitol, 0.5 μg/ml of leupeptin. The homogenates were centrifuged at 10,000 g for 20 min, and each supernatant was applied to a FPLC system with a Superose 6 HR 10/30 column similar to the previous section. The enzyme activity of the PEG-XO-high fraction was determined fluorometrically, i.e., the formation of fluorescent isoxanthopterin from pterin was measured with an excitation at 345 nm and an emission at 390 nm, in which hypoxanthine was replaced with pterin as substrate. The quantification was made using the calibration curve of the authentic isoxanthopterin (Aldrich Chemical, Milwaukee, Wis.).

[4] = Enzyme activity of PEG-XO: formation of uric acid from hypoxanthine (absorbance at 290 nm); assay type: biochemical; conditions: for XO activity: 50 μM hypoxanthine, 50 mM sodium phosphate buffer pH 7.4, room temperature; for enzyme activity compared with native XO: relative to native XO
Description: The enzyme activity was determined by quantifying the formation of uric acid from hypoxanthine by measuring the increase of absorbance at 290 nm, an absorption maximum of uric acid. The initial concentration of the substrate hypoxanthine was 50 μM. The enzyme reaction was carried out in 50 mM sodium phosphate buffer (pH 7.4) at room temperature. One unit of XO activity is defined as the velocity of the formation of 1 μmol of uric acid per min.

[5] = Systemic side effect of PEG-XO-high/hypoxanthine; assay type: in vivo; conditions: PEG-XO/hypoxanthine therapy
[6] = Bray and Swann 1972; confirmed by the inventors; cited from earlier work
[7] = 2 administrations 0.6 U/mouse, hypoxanthine 13.3 mg/kg i.p.
[8] = 15 days after tumor inoculation, 2 times 0.6 U/mouse i.v. (day 7, 9), hypoxanthine 13.3 mg/kg i.p. six times

D-amino acid oxidase [native DAO]
suppression of the tumor growth [1]: no significant reduction of the tumor growth

PEG-XO-high: Xanthine oxidase conjugated with succinimide activated-PEG (Mw 5000), 49% of amino groups modified
suppression of the tumor growth [2, 7]: significant (p<0.05) suppression of the tumor growth
antitumor activity ([2]; 3 administrations 0.6 U/mouse, hypoxanthine 13.3 mg/kg i.p., FIG. 2): remarkable antitumor activity
weight of tumor ([2]; 13 days after tumor inoculation, 3 times 0.6 U/mouse i.v. (day 7, 8, 9), hypoxanthine 13.3 mg/kg i.p. 6 times): 0.13 ± 0.08 g
weight of tumor [2, 8]: 0.22 ± 0.05 g
inhibition of tumor growth ([2]; day 13, 3 administrations 0.6 U/mouse, hypoxanthine 13.3 mg/kg i.p.): 77%
inhibition of the tumor growth ([2]; day 15, 2 administrations 0.6 U/mouse, hypoxanthine 13.3 mg/kg i.p.): 39%
XO activity in S-180 solid tumor tissue after injection ([3]; 0.2 U/mouse i.v., 24 hrs, FIG. 6B): a new large peak of XO activity was observed
PEG-XO-high activity in tumor over time ([3]; FIG. 7): increased in a time dependent manner
XO activity [4]: 1.15 U/mg protein
enzyme activity compared with native XO [4]: 54%

PEG-XO-low: Xanthine oxidase conjugated with succinimide activated-PEG (Mw 5000), 17% of amino groups modified
XO activity [4]: 2.40 U/mg protein
enzyme activity compared with native XO [4]: 110%

PEG-XO: Chemically conjugated XO with poly(ethylene glycol); generic term, in vivo work used PEG-XO-high
hematotoxicity or liver toxicity [5]: No serious or significant hematotoxicity or liver toxicity

xanthine oxidase [Native-XO]
suppression of the tumor growth [2, 7]: no significant reduction of the tumor growth
weight of tumor [2, 8]: 0.31 ± 0.03 g
antitumor effect of native XO (literature) [6]: insignificant
XO activity [4]: 2.12 U/mg protein
